# Measurements: patent US20040204488A1, “S-[2-[(1-Iminoethyl)amino]ethyl]-2-methyl-L-cysteine maleate crystalline salt” (priority 2003, published 2004)
# How the values were obtained:
# Format in all cases: physicochemical
# Moisture sorption = conditions: 90% R.H. and 25° C.
# Source text: The novel salt is characterized by some or all of the following physical measurements: elemental analysis (such as by combustion analysis), melting point and heat of fusion (differential scanning calorimetry and thermogravimetric analysis), refractive indices (polarized light microscopy), x-ray powder diffraction pattern, moisture sorption (for example, DVS moisture balance) and vibrational signature (Raman spectrum).
# FIG. 12 is a plot of a moisture sorption study of S-[2-[(1-Iminoethyl)amino]ethyl]-2-methyl-L-cysteine maleate.
# physchem [1] = conditions: water
# [2] = Solution stability of anion-exchange titration samples by HPLC (Example 8); conditions: fractions of resin titration
# Description: (§1) Cation exchange column cuts containing approximately 0.9 g of S-[2-[(1-Iminoethyl)amino]ethyl]-2-methyl-L-cysteine di-hydrochloride in 142 ml HCl/water solution, were concentrated on a rotary evaporator at 60° C. to an oil. To the oil, diluted to 60 ml with deionized water, was added aliquots of 0.5 g of washed anion exchange resin while stirring. At five minutes after each aliquot of resin was added, the solution pH was measured and a sample removed through a syringe filter. A total of 9 g of anion exchange resin was added. The final pH was 10.8. The resin was removed by filtration and the filtrate was concentrated to an oil by rotary evaporation at 60° C.; no solids formed. The starting material, final filtrate and all intermediate samples were assayed by HPLC and ion chromatography for chloride.
# 3.3 g a sample containing about 1 g of S-[2-[(1-Iminoethyl)amino]ethyl]-2-methyl-L-cysteine di-hydrochloride was diluted to 20 g. Aliquots of prewashed Amberlite IRA400 (OH) resin was added to the solution and samples were periodically withdrawn through a syringe filter. […] The starting materials, intermediate samples and final filtrate were analyzed. […] Samples were drawn at pH of 8.13 and 1.63 and analyzed by HPLC.
# In the repeat of the above experiment, the resulting samples were analyzed by HPLC. […]
# physchem [3] = conditions: pKa of amidine ion
# Source text: The parent S-[2-[(1-Iminoethyl)amino]ethyl]-2-methyl-L-cysteine molecule has 3 ionizable groups and can exist in 4 ionization states.
# At low pH, the molecule exists as a +2 charged free acid, with the carboxylic acid, amine and amidine moieties protonated. This is the ionization state for the dihydrochloride salt. The initial lots of S-[2-[(1-Iminoethyl)amino]ethyl]-2-methyl-L-cysteine (dihydrochloride) contained around 0.3 eq of excess HCl.
# As the pH is increased, the carboxylic acid group is the first group to deprotonate, and this produces a net charge on the molecule of +1. If the pH increase is generated by addition of sodium hydroxide to S-[2-[(1-Iminoethyl)amino]ethyl]-2-methyl-L-cysteine, the sodium dihydrochloride salt is formed. If the increase in pH is due to removal of chloride ions by anion exchange processing, the product is the monohydrochloride salt with no sodium.
# A positive charge still resides on the amidine, and a negative charge still resides on the carboxyl group. If such material is made by the addition of sodium hydroxide to the dihydrochloride, the resulting product is the monohydrochloro sodium salt, mixed with one equivalent of sodium chloride. The material prepared by the anion exchange resin approach is the free zwitterion.
# Further increases in pH lead to deprotonation of the amidine ion (pKa ˜12.5). […]
# [4] = Pseudo-titration in water with IRA-400(OH) anion exchange resin (pH vs resin added)
# Description: 60 g of Amberlite IRA400 (OH) resin was prewashed with 4.7 percent (by weight) ammonium hydroxide (50 ml of 28 percent ammonium hydroxide, 250 ml deionized water), followed by extensive washing with deionized water. The final conductivity was 6.1 μS.
# as §1
# The diamond (solid line) is pH and square (dashed line) is S-[2-[(1-Iminoethyl)amino]ethyl]-2-methyl-L-cysteine (percent initial, by ion chromatography). […] The diamond (solid line) is pH and triangle (broken line) is chloride (by ion chromatography).
# These curves are not true titration curves since samples were withdrawn during the progress of the reaction, and since true equilibrium was not attained before the increments of resin were added. Nevertheless, the graphs of FIG. 2 and FIG. 3 illustrate the expected trends. As resin is added to the S-[2-[(1-Iminoethyl)amino]ethyl]-2-methyl-L-cysteine solution the pH rises with change in slope around pH's of 2, 9 and 11. The pH's of slower rise are representative of the pK's of the carboxylic acid, amine and amidine functional groups, respectively. Above a pH of 10, the S-[2-[(1-Iminoethyl)amino]ethyl]-2-methyl-L-cysteine concentration in solution decreases. At this point, the S-[2-[(1-Iminoethyl)amino]ethyl]-2-methyl-L-cysteine is gaining a net negative charge and is binding to the resin. […]
water absorbed by weight (Moisture sorption),solubility (physchem [1]),degradation of titration fractions by HPLC [2],pKa (physchem [3]),pH of slower rise representative of pK of amidine group [4],pH of slower rise representative of pK of amine group [4],pH of slower rise representative of pK of carboxylic acid group [4],SMILES
less than one percent,> 230 mg/mL,–,–,–,–,–,CC(=N)NCCSC[C@](C)(N)C(=O)O.O=C(O)/C=C\C(=O)O [S-[2-[(1-Iminoethyl)amino]ethyl]-2-methyl-L-cysteine maleate]
–,–,no degradation,~12.5,~11,~9,~2,CC(=N)NCCSC[C@](C)(N)C(=O)O [S-[2-[(1-Iminoethyl)amino]ethyl]-2-methyl-L-cysteine]
